According to patent publication US10111873B1, “Dihydropyrimidinone derivatives” (KING SAUD UNIVERSITY, priority 2018, dated 2018):

SMILES	melting point [°C]
O=C1NC=C(C(=O)c2ccc(N3CCNCC3)cc2)C(c2ccc([N+](=O)[O-])cc2)N1 (stereo not shown) [DHPM-3, 4-(4-Nitrophenyl)-5-[4-(piperazin-1-yl)benzoyl]-3,4-dihydropyrimidin-2(1H)-one]	175 to 177
O=C1NC=C(C(=O)c2ccc(N3CCNCC3)cc2)C(c2ccccc2)N1 (stereo not shown) [DHPM-1, 4-phenyl-5-[4-(piperazin-1-yl)benzoyl]-3,4-dihydropyrimidin-2(1H)-one]	150 to 152
O=C1NC=C(C(=O)c2ccc(N3CCNCC3)cc2)C(c2ccc(Cl)cc2)N1 (stereo not shown) [DHPM-5, 4-(4-Chlorophenyl)-5-[4-(piperazin-1-yl)benzoyl]-3,4-dihydropyrimidin-2(1H)-one]	160 to 162
O=C1NC=C(C(=O)c2ccc(N3CCNCC3)cc2)C(c2ccc(O)cc2)N1 (stereo not shown) [DHPM-7, 4-(4-Hydroxyphenyl)-5-[4-(piperazin-1-yl)benzoyl]-3,4-dihydropyrimidin-2(1H)-one]	210 to 212
COc1ccccc1C1NC(=O)NC=C1C(=O)c1ccc(N2CCOCC2)cc1 (stereo not shown) [DHPM-16, 4-(2-methoxyphenyl)-5-[4-(morpholin-4-yl)benzoyl]-3,4-dihydropyrimidin-2(1H)-one]	178 to 180
O=C1NC=C(C(=O)c2ccc(N3CCOCC3)cc2)C(c2ccccc2[N+](=O)[O-])N1 (stereo not shown) [DHPM-12, 5-[4-(morpholin-4-yl)benzoyl]-4-(2-nitrophenyl)-3,4-dihydropyrimidin-2(1H)-one]	198 to 200
O=C1NC=C(C(=O)c2ccc(N3CCNCC3)cc2)C(c2cccc(O)c2)N1 (stereo not shown) [DHPM-8, 4-(3-Hydroxyphenyl)-5-[4-(piperazin-1-yl)benzoyl]-3,4-dihydropyrimidin-2(1H)-one]	158 to 160
O=C1NC=C(C(=O)c2ccc(N3CCNCC3)cc2)C(c2ccccc2[N+](=O)[O-])N1 (stereo not shown) [DHPM-2, 4-(2-Nitrophenyl)-5-[4-(piperazin-1-yl)benzoyl]-3,4-dihydropyrimidin-2(1H)-one]	170 to 172
O=C1NC=C(C(=O)c2ccc(N3CCOCC3)cc2)C(c2ccc([N+](=O)[O-])cc2)N1 (stereo not shown) [DHPM-13, 5-[4-(morpholin-4-yl)benzoyl]-4-(4-nitrophenyl)-3,4-dihydropyrimidin-2(1H)-one]	202 to 204
COc1ccccc1C1NC(=O)NC=C1C(=O)c1ccc(N2CCNCC2)cc1 (stereo not shown) [DHPM-6, 4-(2-methoxyphenyl)-5-[4-(piperazin-1-yl)benzoyl]-3,4-dihydropyrimidin-2(1H)-one]	120 to 122
CCOc1ccc(C2NC(=O)NC=C2C(=O)c2ccc(N3CCOCC3)cc2)cc1 (stereo not shown) [DHPM-20, 4-(4-ethoxyphenyl)-5-[4-(morpholin-4-yl)benzoyl]-3,4-dihydropyrimidin-2(1H)-one]	200 to 202
O=C1NC=C(C(=O)c2ccc(N3CCNCC3)cc2)C(c2cccc([N+](=O)[O-])c2)N1 (stereo not shown) [DHPM-4, 4-(3-Nitrophenyl)-5-[4-(piperazin-1-yl)benzoyl]-3,4-dihydropyrimidin-2(1H)-one]	180 to 182
O=C1NC=C(C(=O)c2ccc(N3CCOCC3)cc2)C(c2ccc(O)cc2)N1 (stereo not shown) [DHPM-17, 4-(4-hydroxyphenyl)-5-[4-(morpholin-4-yl)benzoyl]-3,4-dihydropyrimidin-2(1H)-one]	118 to 120
O=C1NC=C(C(=O)c2ccc(N3CCOCC3)cc2)C(c2ccc(Cl)cc2)N1 (stereo not shown) [DHPM-15, 4-(4-chlorophenyl)-5-[4-(morpholin-4-yl)benzoyl]-3,4-dihydropyrimidin-2(1H)-one]	288 to 290
O=C1NC=C(C(=O)c2ccc(N3CCOCC3)cc2)C(c2cccc([N+](=O)[O-])c2)N1 (stereo not shown) [DHPM-14, 5-[4-(morpholin-4-yl)benzoyl]-4-(3-nitrophenyl)-3,4-dihydropyrimidin-2(1H)-one]	205 to 207
COc1cccc(C2NC(=O)NC=C2C(=O)c2ccc(N3CCNCC3)cc2)c1 (stereo not shown) [DHPM-9, 4-(3-methoxyphenyl)-5-[4-(piperazin-1-yl)benzoyl]-3,4-dihydropyrimidin-2(1H)-one]	118 to 120
O=C1NC=C(C(=O)c2ccc(N3CCOCC3)cc2)C(c2cccc(O)c2)N1 (stereo not shown) [DHPM-18, 4-(3-hydroxyphenyl)-5-[4-(morpholin-4-yl)benzoyl]-3,4-dihydropyrimidin-2(1H)-one]	120 to 122
CCOc1cccc(C2NC(=O)NC=C2C(=O)c2ccc(N3CCNCC3)cc2)c1 (stereo not shown) [DHPM-10, 4-(3-Ethoxyphenyl)-5-[4-(piperazin-1-yl)benzoyl]-3,4-dihydropyrimidin-2(1H)-one]	88 to 90
O=C1NC=C(C(=O)c2ccc(N3CCOCC3)cc2)C(c2ccccc2)N1 (stereo not shown) [DHPM-11, 5-[4-(morpholin-4-yl)benzoyl]-4-phenyl-3,4-dihydropyrimidin-2(1H)-one]	258 to 260
